{
  "source": "patent US20230322805A1",
  "about": "“NOVEL PYRIMIDODIAZEPINE DERIVATIVES OR USES THEREOF” (SPARK BIOPHARMA, INC., priority 2020, published 2023)",
  "test_system": "TBI mouse model",
  "assay": "Controlled cortical impact TBI mouse model",
  "format": "in vivo",
  "description": "CD-1 (ICR) male mice (2-3 months old, 25-35 g body weight; DBL, Korea) were used in the TBI study. […] All mice were fed water and food ad libitum. In order to avoid and minimize transport-related stress, experiments were initiated after a period of one week following transport to allow the animals to acclimatize to environmental conditions.\nAn experimental controlled cortical impact (CCI) model for TBI was performed as follows. Using an isoflurane vaporizer (VetEquip), the mouse was deeply anesthetized with isoflurane inhaled at 3% in a mixture of 70:30 nitrous oxide and oxygen, and placed in a stereotaxic apparatus. […] An approximately 4 mm incision was made in the right hemisphere using a hand-held drill (midline 2 mm, bregma 1 mm). A controlled cortical impact device (Leica Impact One, Leica Biosystems) was used to accelerate an impact device equipped with a 2 mm flat-tip at a speed of 5 m/sec to a depth of 1.4 mm. […] Traumatic brain injury animal models were randomly generated according to an online randomization tool (randomizer.org). Sham-operated groups performed only craniotomy.\nControl mice were intraperitoneally administered with the same volume of vehicle.\nMice were deeply anesthetized by intraperitoneal administration of a mixture of urethane (1.5 g/kg) in saline (0.9% NaCl) at 0.01 mL/g per body weight. The effect of anesthesia was assessed using a toe pinch. Subsequently, saline was perfused into the heart of the mouse, and PBS was mixed with 4% paraformaldehyde and then perfused. Brains were fixed in 4% paraformaldehyde for 1 h and immersed in 30% sucrose for cryoprotection. Then, whole brains were frozen and […] sections were formed on a cryostat microtome (CM1850, Leica) with a thickness of 30 μm.\nAfter washing in PBS, sections were incubated overnight with a mouse monoclonal anti-NeuN antibody (1:500 dilution, Millipore) in PBS containing 0.3% Triton X-100 at 4° C. to assess neuronal loss after TBI. After washing with PBS, sections were incubated in biotinylated anti-mouse IgG (1:250 dilution, Vector) at room temperature for 2 hours […] to detect NeuN antibody and biotinylated anti-rat IgG (1:250 dilution, Vector) to examine the degree of leakage of endogenous immunoglobulin G. Then, the sections were immersed in an avidin-biotin-peroxidase complex (Vector) for 2 hours at room temperature. Between incubations, sections were washed with PBS. […] Immunoreactivity was observed under an Olympus IX70 inverted microscope.\nImmunofluorescence labeling was performed according to a conventionally known general immunostaining procedure. […] After washing with PBS, the sections were incubated with each specific type of polyclonal or monoclonal primary antibody with PBS containing 0.3% Triton X-100 overnight at 4° C.\nThe primary antibodies used in this test are the same as follows: • mouse monoclonal anti-4-hydroxynonenal (4-HNE; diluted 1:500; Alpha Diagnostic International), • mouse monoclonal anti-Tau (Tau5; diluted 1:500; Abcam), • mouse monoclonal anti-phospho Tau (Ser202, Thr205; AT8; diluted 1:200; Invitrogen), • mouse monoclonal anti-PDI (diluted 1:100; Abcam), • rabbit polyclonal anti-ERp57 (diluted 1:100; Abcam), and • goat polyclonal anti-Iba-1 antibody (diluted 1:500; Abcam).\nTo count NeuN-positive cells, every sixth section was collected posterior to bregma from 1.2 to 2.1 mm at 180 μm intervals. Five coronal sections from each mouse were analyzed using a microscope with a 20×objective. These sections were then coded and provided to a blinded experimenter to count total NeuN-positive cells in hippocampal CA1 and cortex from hippocampal hemispheres. Data were expressed as the average number of NeuN-positive cells per area. To quantify the PDI-, ERp57-, Tau5-, AT8-, and 4HNE- immunofluorescence intensities, five coronal sections were evaluated by a blinded experimenter using ImageJ (National Institute of Health).",
  "key": {"[1]": {"conditions": "after TBI induction, versus vehicle"}, "[2]": {"conditions": "ipsilateral perilesional cortex, 12 and 24 hours after TBI induction"}},
  "data": [
    {"compound": "CN(Cc1ccc(Cl)cc1)c1ncnc2c1[C@@H]1OC[C@H](CN2)N1S(=O)(=O)c1ccc([N+](=O)[O-])cc1", "note": "[Compound 117]", "values": [
      {"measurement": "neurologic severity score (NSS)", "setting": "1, 4, 24, 48, 72 hours and 7 days after TBI", "value": "maintained nerve protection activity"},
      {"measurement": "pole climbing test, time to descend the pole", "setting": "[1]", "value": "significantly reduced"},
      {"measurement": "pole climbing test, time to turn the head downward", "setting": "[1]", "value": "significantly reduced"},
      {"measurement": "level of microglial activation", "setting": "ipsilateral hemisphere, after TBI", "value": "the activity of microglial cells was improved"},
      {"measurement": "total tau and p-tau levels (Tau5, AT8 immunofluorescence)", "setting": "ipsilateral hippocampal CA1 and cortex, 24 hours after TBI, 5 mg/kg, 2 times a day", "value": "these symptoms were improved"},
      {"measurement": "Iba-1 levels (neuroinflammation)", "setting": "ipsilateral hippocampal CA1 and cortex, 72 hours after TBI", "value": "could be improved"},
      {"measurement": "ER stress and oxidative stress (PDI, ERp57 immunofluorescence)", "setting": "ipsilateral hippocampal CA1 and cortex, 5 mg/kg, 2 times a day", "value": "these symptoms were confirmed"},
      {"measurement": "conversion rate from LC3-1 to LC3-II (Western blotting)", "setting": "[2]", "value": "the conversion rate from LC3-1 to LC3-II was improved"},
      {"measurement": "p62 protein level (Western blotting)", "setting": "[2]", "value": "an increase in p62 protein level"}
    ]}
  ]
}
